Assay results from patent publication US6168798A, “Non-irritating composition for treating acne and other skin conditions” (Bristol-Myers Squibb Company, priority 1997, dated 2001).

System: isolated bovine corneas
Description: The bovine corneal opacity and permeability assay (BCOP) was used to assess the ocular irritancy of test formulations to isolated bovine corneas. Bovine corneas, obtained as a by-product from freshly slaughtered animals, were mounted in special holders and exposed to the test formulations. An in vitro score was determined for each test material based on the induction of opacity and permeability to fluorescein in the isolated bovine corneas. In these experiments, the potential ocular irritancy of the composition formulated in accordance with the invention and exemplified in Table 1 was compared with that of the commercially-available comparative product. Ocular irritancy was measured by changes in opacity and permeability to fluorescein in isolated bovine corneas. Five corneas were treated with each test material. Based on changes in corneal opacity and permeability relative to control corneas, an in vitro score was determined. […]
After a minimum of one hour of incubation, the corneal holders with the corneas in place were removed from the incubator and the medium was removed from both compartments and replaced with fresh medium. The opacity was determined for each cornea using a Spectro Design OP-KIT opacitometer. Three corneas whose opacity readings were close to the median opacity for all of the corneas were selected as the negative control corneas. […]

SMILES: CCO [ethanol (95%), ethanol]
- Irritation potential rating from in vitro score: moderate to severe
